Values belong to the compound of their own block, whether it stands above or below them.
Experiments:
[1] = Open-label sequential drug-drug interaction study: plasma pharmacokinetics of deutetrabenazine and its metabolites without and with steady-state paroxetine; settings: for % Ratio of LS means (90% CI) (day 11)/(day 1), AUC0−t / % Ratio of LS means (90% CI) (day 11)/(day 1), AUC0−∞ / % Ratio of LS means (90% CI) (day 11)/(day 1), Cmax: deutetrabenazine + paroxetine vs deutetrabenazine alone; for Increase of half-life (t1/2) in presence of paroxetine / Increase of AUC0–∞ in presence of paroxetine / Increase of Cmax in presence of paroxetine: deutetrabenazine 22.5 mg; for Increase of half-life (t1/2) in presence of paroxetine: steady-state paroxetine vs alone; for Increase of AUC0–∞ in presence of paroxetine / Increase of Cmax in presence of paroxetine: population of 15 EM and 8 IM, steady-state paroxetine 20 mg daily vs alone
Source text: This was an open-label sequential drug-drug interaction study in 24 healthy adult subjects who were CYP2D6 extensive metabolizers (EM) or CYP2D6 intermediate metabolizers (IM); Supplemental Table S1 provides the genotypes and phenotypes of the subjects.
Subjects checked into the clinic on day 1 and were confined through day 14. […] Those who met inclusion/exclusion criteria received a single dose of deutetrabenazine on day 1 followed by a 72-h washout. Subjects then received paroxetine on days 4 to 12 to achieve steady-state plasma concentrations of paroxetine by day 11. On day 11, another single dose of deutetrabenazine was administered. Triplicate 12-lead digital electrocardiograms (ECGs) were collected predose and for 10 h following deutetrabenazine dosing on day 1, and for 10 h on day 11, following paroxetine administration on day 10. Blood samples for measurement of plasma concentrations of deutetrabenazine and its metabolites were obtained on days 1 and 11 (predose, 1, 2, 2.5, 3, 3.5, 4, 4.5, 5, 6, 7, 8, 10, 12, and 16 h), days 2 and 12, at 24 and 36 h, days 3 and 13, at 48 and 60 h and days 4 and 14, at 72 h. Paroxetine trough levels were obtained pre-dose on days 9, 10, 11, and 12, and on day 13 at 24 h post the final paroxetine dose on day 12. Blood and urine samples were collected for clinical laboratory testing (hematology, serum chemistries, and urinalysis) at admission and after at least 10 h fasting and at study completion on day 14 or upon early withdrawal.
All participants received the following treatments, deutetrabenazine 22.5-mg oral dose as one 15-mg tablet + one 7.5-mg tablet on days 1 and 11 and one paroxetine 20 mg (Cadila Healthcare Ltd.) oral tablet on days 4 through 12. The deutetrabenazine 22.5-mg dose was administered with 237 mL of water in the morning approximately 30 min after a standardized breakfast meal with moderate fat content (35%). No food was allowed for at least 4 h postdose, and subjects were asked to remain upright for at least 4 h postdose, unless medically necessary.
Paroxetine 20 mg was administered in the morning with 237 mL water for 9 days (days 4 to 12) to ensure steady-state levels. On days 4 to 10 and 12, the paroxetine dose was administered in a fed state 30 min after breakfast. On day 11, as paroxetine can be administered without regard to food, subjects took the paroxetine dose under fasting conditions (at least 1 h prior to breakfast and 1.5 h prior to deutetrabenazine administration) following an overnight fast of at least 10 h. Subjects were asked to remain upright for at least 1 h after the paroxetine dose, unless medically necessary.
Validated liquid chromatography/tandem mass spectrometry methods were applied to assess plasma concentrations of paroxetine, deutetrabenazine, α- and β-HTBZ metabolites, and the O-desmethyl metabolites of α- and β-HTBZ. This was performed on a Sciex API 4000 instrument, equipped with a Turbo Ion Spray ion source operated in the positive ion mode and interfaced to a Shimadzu HPLC system fitted with a Waters XBridge C18 reverse phase column (3.5 µm; 50 × 2.1 mm) for paroxetine, deutetrabenazine, α-HTBZ and β-HTBZ or a Phenomenex Kinetex column (2.6 µm; 100 × 2.1 mm) for the O-desmethyl metabolites. The validated assay ranges were as follows: paroxetine 0.500 to 50.0 ng/mL, deutetrabenazine 0.100 to 10.0 ng/mL, deuterated α- and β-HTBZ 0.500 to 100 ng/mL, and 9-O- and 10-O-desmethyl metabolites of α-HTBZ and β-HTBZ 0.5 to 50.0 ng/mL. The methods were developed and validated by CPR Pharma Services, Pty, Ltd Australia, as described earlier.
Plasma concentrations, below the limit of quantitation (BLQ) of the assay, were designated a value of zero for initial and time points occurring at the end of the profile. For sampling time points between two quantifiable concentrations, plasma concentrations BLQ followed by a measurable concentration were set to the limit of quantitation of the assay.

[2] = Safety assessments (adverse events, ECG, C-SSRS) in the drug-drug interaction study
Protocol: Subjects checked into the clinic on day 1 and were confined through day 14. […] Subjects then received paroxetine on days 4 to 12 to achieve steady-state plasma concentrations of paroxetine by day 11. On day 11, another single dose of deutetrabenazine was administered. Triplicate 12-lead digital electrocardiograms (ECGs) were collected predose and for 10 h following deutetrabenazine dosing on day 1, and for 10 h on day 11, following paroxetine administration on day 10. […] Blood and urine samples were collected for clinical laboratory testing (hematology, serum chemistries, and urinalysis) at admission and after at least 10 h fasting and at study completion on day 14 or upon early withdrawal.

[3] = cited from earlier work; for Increase in exposure with paroxetine: after tetrabenazine administration
[4] = adverse events by treatment period, 24 subjects dosed
[5] = Subjects with EM phenotype (n = 15)
[6] = Subjects with IM phenotype (n = 8)
[7] = paroxetine administered with tetrabenazine

- Mean plasma concentrations in the presence and absence of paroxetine ([1]; deutetrabenazine 22.5 mg oral, day 11 vs day 1): comparable
- Cmax ([1]; human, in vivo): 0.3 (44) ng/mL
- Tmax ([1]; human, in vivo): 3.5 (1.0–6.0) h
- AUC0-t ([1]; human, in vivo, im): 1.0 (55) ng × h/mL
- Cmax ([1]; human, in vivo, im): 0.5 (66) ng/mL
- Tmax ([1]; human, in vivo, im): 3.5 (1.0–6.0) h
- Cmax ([1]; human, in vivo, po, 22.5 mg): 0.4 (60) ng/mL
SMILES: [2H]C([2H])([2H])Oc1cc2c(cc1OC([2H])([2H])[2H])C1CC(=O)C(CC(C)C)CN1CC2 (centres unmarked) [Deutetrabenazine]
- Back pain [2, 4]: 0 (0%) n (%)
- Chest discomfort [2, 4]: 0 (0%) n (%)
- Decreased appetite [2, 4]: 0 (0%) n (%)
- Dizziness [2, 4]: 1 (4%) n (%)
- Feeling abnormal [2, 4]: 0 (0%) n (%)
- Feeling hot [2, 4]: 0 (0%) n (%)
- Gastrointestinal Disorders [2, 4]: 0 (0%) n (%)
- General Disorders and Administration Site Conditions [2, 4]: 0 (0%) n (%)
- Gingival pain [2, 4]: 0 (0%) n (%)
- Headache [2, 4]: 0 (0%) n (%)
- Hypoaethesia oral [2, 4]: 0 (%) n (%)
- Local swelling [2, 4]: 0 (0%) n (%)
- Metabolism and Nutritional disorders [2, 4]: 0 (0%) n (%)
- Muscle tightness [2, 4]: 0 (0%) n (%)
- Musculoskeletal and Connective Tissue Disorders [2, 4]: 0 (0%) n (%)
- Nausea [2, 4]: 0 (0%) n (%)
- Nervous System Disorders [2, 4]: 1 (4%) n (%)
- Paraesthesia oral [2, 4]: 0 (0%) n (%)
- Sensation of foreign body [2, 4]: 0 (0%) n (%)
- Sensation of heaviness [2, 4]: 0 (0%) n (%)
- Swollen tongue [2, 4]: 0 (0%) n (%)
- Vomiting [2, 4]: 0 (0%) n (%)
- Subjects with AEs, n (%) ([2]; by treatment period, 24 subjects dosed): 3 (13%) n (%)
- Infections and Infestations ([2]; in vivo): 0 (0%) n (%)
- Viral Infections ([2]; in vivo): 0 (0%) n (%)
- Safety and tolerability ([2]; single doses of 22.5 mg, alone or in the presence of steady-state paroxetine (20 mg daily), healthy subjects): safe and generally well tolerated

- Steady-state exposure (mean trough plasma concentrations, visual inspection) ([1]; paroxetine 20 mg oral daily on days 4–12): achieved on day 10
SMILES: Fc1ccc([C@@H]2CCNC[C@H]2COc2ccc3c(c2)OCO3)cc1 [Paroxetine, reference compound]
- Back pain [2, 4]: 1 (4%) n (%)
- Chest discomfort [2, 4]: 1 (4%) n (%)
- Decreased appetite [2, 4]: 3 (13%) n (%)
- Dizziness [2, 4]: 1 (4%) n (%)
- Feeling abnormal [2, 4]: 1 (4%) n (%)
- Feeling hot [2, 4]: 1 (4%) n (%)
- Gastrointestinal Disorders [2, 4]: 5 (21%) n (%)
- General Disorders and Administration Site Conditions [2, 4]: 5 (21%) n (%)
- Gingival pain [2, 4]: 1 (4%) n (%)
- Headache [2, 4]: 5 (21%) n (%)
- Hypoaethesia oral [2, 4]: 1 (4%) n (%)
- Infections and Infestations [2, 4]: 1 (4%) n (%)
- Local swelling [2, 4]: 1 (4%) n (%)
- Metabolism and Nutritional disorders [2, 4]: 3 (13%) n (%)
- Muscle tightness [2, 4]: 1 (4%) n (%)
- Nervous System Disorders [2, 4]: 7 (29%) n (%)
- Paraesthesia oral [2, 4]: 1 (4%) n (%)
- Sensation of foreign body [2, 4]: 1 (4%) n (%)
- Sensation of heaviness [2, 4]: 0 (0%) n (%)
- Viral Infections [2, 4]: 1 (4%) n (%)
- Headache, subjects reporting ([2]; most common AE, reported 8 times by 7 subjects overall): 5 subjects

- % Ratio of LS means (90% CI) (day 11)/(day 1), AUC0−t ([1]; All subjects (n = 23)): 163.3 (148.3–179.8) %
- % Ratio of LS means (90% CI) (day 11)/(day 1), AUC0−∞ ([1]; All subjects (n = 23)): 169.8 (153.8–187.5) %
- % Ratio of LS means (90% CI) (day 11)/(day 1), Cmax ([1]; All subjects (n = 23)): 106.3 (90.0–125.4) %
- % Ratio of LS means (90% CI) (day 11)/(day 1), AUC0−t [1, 5]: 181.6 (162.4–302.0) %
- % Ratio of LS means (90% CI) (day 11)/(day 1), AUC0−∞ [1, 5]: 185.0 (165.8–206.4) %
- % Ratio of LS means (90% CI) (day 11)/(day 1), Cmax [1, 5]: 119.9 (108.1–132.9) %
- % Ratio of LS means (90% CI) (day 11)/(day 1), AUC0−t [1, 6]: 192.2 (162.9–226.8) %
- % Ratio of LS means (90% CI) (day 11)/(day 1), AUC0−∞ [1, 6]: 193.6 (164.4–228.0) %
- % Ratio of LS means (90% CI) (day 11)/(day 1), Cmax [1, 6]: 127.8 (111.8–146.1) %
- Increase of half-life (t1/2) in presence of paroxetine [1]: 1.5 fold
- Cmax ([1]; human, in vivo): 35.8 (21) ng/mL
- AUC0–∞ ([1]; human, in vivo, im): 546 (22) ng × h/mL
- Cmax ([1]; human, in vivo, im): 40.5 (22) ng/mL
- Tmax ([1]; human, in vivo, im): 4.0 (2.0–7.0) h
- t1/2 ([1]; human, in vivo, im): 13.0 (23) h
- Cmax ([1]; human, in vivo, po, 22.5 mg): 37.4 (22) ng/mL
- Increase of AUC0–∞ in presence of paroxetine [1]: 1.8 fold
- Increase of Cmax in presence of paroxetine [1]: 1.2 fold
SMILES: COc1cc2c(cc1OC)[C@@H]1C[C@H](O)[C@@H](CC(C)C)CN1CC2 [α-HTBZ]
- Increase in exposure with paroxetine [3]: threefold
- Increase of Cmax with paroxetine [3, 7]: 1.3 fold

- % Ratio of LS means (90% CI) (day 11)/(day 1), AUC0−t ([1]; All subjects (n = 23)): 484.7 (355.2–661.5) %
- % Ratio of LS means (90% CI) (day 11)/(day 1), AUC0−∞ ([1]; All subjects (n = 23)): 520.6 (388.9–697.0) %
- % Ratio of LS means (90% CI) (day 11)/(day 1), Cmax ([1]; All subjects (n = 23)): 154.3 (126.0–189.0) %
- % Ratio of LS means (90% CI) (day 11)/(day 1), AUC0−t [1, 5]: 641.3 (537.3–765.4) %
- % Ratio of LS means (90% CI) (day 11)/(day 1), AUC0−∞ [1, 5]: 649.9 (549.6–768.5) %
- % Ratio of LS means (90% CI) (day 11)/(day 1), Cmax [1, 5]: 216.4 (185.0–253.2) %
- % Ratio of LS means (90% CI) (day 11)/(day 1), AUC0−t [1, 6]: 744.6 (605.3–915.8) %
- % Ratio of LS means (90% CI) (day 11)/(day 1), AUC0−∞ [1, 6]: 731.5 (595.0–899.3) %
- % Ratio of LS means (90% CI) (day 11)/(day 1), Cmax [1, 6]: 259.2 (216.7–310.1) %
- Increase of half-life (t1/2) in presence of paroxetine [1]: 2.7 fold
- Cmax ([1]; human, in vivo): 20.4 (33) ng/mL
- AUC0–∞ ([1]; human, in vivo, im): 333 (75) ng × h/mL
- Cmax ([1]; human, in vivo, im): 32.6 (22) ng/mL
- Tmax ([1]; human, in vivo, im): 4.0 (2.0–8.0) h
- t1/2 ([1]; human, in vivo, im): 7.9 (50) h
- Cmax ([1]; human, in vivo, po, 22.5 mg): 24.6 (38) ng/mL
- Increase of AUC0–∞ in presence of paroxetine [1]: 5.6 fold
- Increase of Cmax in presence of paroxetine [1]: 2.1 fold
SMILES: COc1cc2c(cc1OC)[C@H]1C[C@H](O)[C@H](CC(C)C)CN1CC2 [β-HTBZ]
- Increase in exposure with paroxetine [3]: ninefold
- Increase of AUC with paroxetine [3, 7]: ninefold

Reference: article PMC8724172, “The effect of potent CYP2D6 inhibition on the pharmacokinetics and safety of deutetrabenazine in healthy volunteers” (European Journal of Clinical Pharmacology, 2021)
